Assay results from patent US11078207B2, “Substituted pyrrolo[2,3-d]pyrimidines as HER2 inhibitors” (TAIHO PHARMACEUTICAL CO., LTD., priority 2019, dated 2021).

Assays:
HER2 = target: T1, HER2 (Homo sapiens, UniProt P04626); assay: Inhibitory effect (in vitro) on HER2 phosphorylation activity; format: biochemical; conditions: recombinant human HER2, ATP 5 μM, 25° C. 30 minutes
T1 construct: purchased Carna Biosciences, Inc
Text: In order to determine conditions for a method of measuring the in vitro inhibitory activity of a compound against HER2 phosphorylation activity, based on the report regarding a HER2 kinase reaction using, as a substrate, a peptide having the same sequence (5-FAM-[…]-CONH2) as that of ProfilerPro Peptide 22 of PerkinElmer (Xie H et al., PLoS One. 2011; 6(7): e21487), ProfilerPro Peptide 22 was used as a substrate. A purified recombinant human HER2 protein used in the present test was purchased from Carna Biosciences, Inc. Upon the measurement of the inhibitory activity of the compound, first, the compound of the present invention was diluted stepwise with dimethyl sulfoxide (DMSO). […] To the reaction solution, EDTA was added to a final concentration of 30 mM, so as to terminate the reaction. Finally, using LabChip (registered trademark) EZ Reader II (PerkinElmer), an unphosphorylated substrate peptide (S) and a phosphorylated peptide (P) were separated and detected according to microchannel capillary electrophoresis.

SK-BR-3 cells = assay: Growth inhibitory activity against HER2 expressing cell line SK-BR-3; format: cell-based; conditions: Homo sapiens, SK-BR-3, 72 h; 3 days, CellTiter-Glo 2.0
Method: SK-BR-3 cells as a HER2 overexpressing human breast cancer cell line were suspended in a McCoy's 5a medium (manufactured by Life Technologies) supplemented with 10% fetal bovine serum. The cell suspension was seeded in each well of a 384-well flat-bottom microplate, and was then cultured in a 5% carbon dioxide gas-containing culture vessel at 37° C. for 1 day. Thereafter, the compound of the present invention was dissolved in DMSO, and the compound was diluted to 500 times the final concentration in DMSO. The compound in the DMSO solution was diluted with DMSO solution or the medium used in the suspension of the cells, and the obtained solution was then added to each well of the culture plate so that the final concentration of DMSO was 0.2%. The obtained mixture was further cultured in the 5% carbon dioxide gas-containing culture vessel at 37° C. for 3 days. After completion of the culture for 3 days in the presence of the compound, the cells were counted using CellTiter-Glo 2.0 (manufactured by Promega), and the growth inhibition percentage was then calculated according to the following equation. […] Growth inhibitory percentage (%)=(C−T)/(C)×100 T: Emission intensity from the well to which the test compound was added C: Emission intensity from the well to which the test compound was not added

Ba/F3-HER2insYVMA cells = Ba/F3-HER2insYVMA cells (Homo sapiens, UniProt P04626, DUP772-775, cells depend on it); assay: Growth inhibitory activity against HER2 exon 20 insertion mutant expressing cell line; format: cell-based, mouse; conditions: 3 days, CellTiter-Glo 2.0, read-out: HER2ex20insYVMA cell growth inhibitory activity IC50 value
Ba/F3-HER2insYVMA cells, sequence (P04626 with tags, fused parts or gaps DUP772-775): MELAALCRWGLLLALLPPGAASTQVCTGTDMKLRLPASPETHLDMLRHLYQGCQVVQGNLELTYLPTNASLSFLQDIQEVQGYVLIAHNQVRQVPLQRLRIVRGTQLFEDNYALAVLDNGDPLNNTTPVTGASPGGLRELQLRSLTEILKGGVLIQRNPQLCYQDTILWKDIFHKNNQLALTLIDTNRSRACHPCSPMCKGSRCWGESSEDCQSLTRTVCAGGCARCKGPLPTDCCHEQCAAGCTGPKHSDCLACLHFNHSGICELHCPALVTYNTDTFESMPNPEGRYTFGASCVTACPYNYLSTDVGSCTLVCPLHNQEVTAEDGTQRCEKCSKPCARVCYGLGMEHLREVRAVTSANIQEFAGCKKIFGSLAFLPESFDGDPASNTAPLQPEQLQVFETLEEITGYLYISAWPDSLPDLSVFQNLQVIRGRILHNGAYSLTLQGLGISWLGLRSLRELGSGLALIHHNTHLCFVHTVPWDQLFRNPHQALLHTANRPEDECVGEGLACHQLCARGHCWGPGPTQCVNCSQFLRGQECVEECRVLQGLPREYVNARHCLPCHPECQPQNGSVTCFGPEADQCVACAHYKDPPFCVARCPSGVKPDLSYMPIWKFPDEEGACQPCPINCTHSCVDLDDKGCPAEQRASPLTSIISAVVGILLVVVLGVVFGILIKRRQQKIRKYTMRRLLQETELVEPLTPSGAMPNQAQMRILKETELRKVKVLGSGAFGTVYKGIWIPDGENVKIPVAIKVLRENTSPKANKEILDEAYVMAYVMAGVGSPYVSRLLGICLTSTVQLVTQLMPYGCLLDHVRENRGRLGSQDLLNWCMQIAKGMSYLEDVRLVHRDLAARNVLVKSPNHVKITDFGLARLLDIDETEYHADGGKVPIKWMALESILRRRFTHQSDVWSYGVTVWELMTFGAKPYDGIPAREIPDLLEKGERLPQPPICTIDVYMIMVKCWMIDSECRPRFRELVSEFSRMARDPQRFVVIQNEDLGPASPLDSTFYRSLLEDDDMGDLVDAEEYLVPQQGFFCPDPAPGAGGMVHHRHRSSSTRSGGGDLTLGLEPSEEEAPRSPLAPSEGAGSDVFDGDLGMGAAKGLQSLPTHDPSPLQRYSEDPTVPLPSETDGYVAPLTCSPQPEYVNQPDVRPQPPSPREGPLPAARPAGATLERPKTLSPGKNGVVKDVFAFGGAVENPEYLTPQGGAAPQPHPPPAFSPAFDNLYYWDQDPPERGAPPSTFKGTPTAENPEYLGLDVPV
Method: Growth inhibitory activity against the HER2 exon 20 insertion mutant was measured using Ba/F3 cells that were a mouse B lymphocyte precursor cell line, into which a human HER2 exon 20 insertion mutant gene had been introduced. The Ba/F3 cells were maintained in an RPMI-1640 medium (Thermo Fisher Scientific) supplemented with 10% fetal bovine serum (FBS), 100 U/mL penicillin, 100 μg/mL streptomycin (Thermo Fisher Scientific) and 1 ng/mL mouse interleukin-3 (mIL-3) (CST).
Upon evaluation of cell growth inhibitory activity, the Ba/F3-HER2insYVMA cells were suspended in an RPMI-1640 medium supplemented with 10% FBS, 100 U/mL penicillin, and 100 μg/mL streptomycin. The cell suspension was seeded in each well of a 96-well flat-bottom microplate, and was then cultured in a 5% carbon dioxide gas-containing culture vessel at 37° C. for 1 day. The compound of the present invention was dissolved in DMSO, and was then diluted with DMSO or the medium used in the suspension of the cells. The obtained solution was then added to each well of the culture plate, so that the final concentration of DMSO became 0.2%. The obtained mixture was further cultured in the 5% carbon dioxide gas-containing culture vessel at 37° C. for 3 days. After completion of the culture for 3 days in the presence of the compound, the cells were counted using CellTiter-Glo 2.0 (manufactured by Promega), and the growth inhibition percentage was then calculated according to the following equation. […] Growth inhibitory percentage (%)=(C−T)/(C)×100 T: Emission intensity from the well to which the test compound was added C: Emission intensity from the well to which the test compound was not added

[1] = target: HER2 exon 20 insertion mutant (HER2ex20insYVMA, A775_G776insYVMA) (Homo sapiens, UniProt P04626, DUP772-775); assay: Inhibitory action (in vitro) against HER2 exon 20 insertion mutant phosphorylation activity; format: biochemical; conditions: 30 min pre-incubation, ATP 200 μM, 25° C. 220 minutes
HER2 exon 20 insertion mutant (HER2ex20insYVMA, A775_G776insYVMA), sequence (P04626 with tags, fused parts or gaps DUP772-775): as above
Text: In order to determine conditions for a method of measuring the in vitro inhibitory activity of a compound against HER2 exon 20 insertion mutant phosphorylation activity, as in the case of HER2, ProfilerPro Peptide 22 was used as a substrate. A purified recombinant human HER2 exon 20 insertion mutant (A775_G776insYVMA) protein is shown in SEQ ID NO: 7, and was purchased from SignalChem. Upon the measurement of the inhibitory activity of the compound, first, the compound of the present invention was diluted stepwise with dimethyl sulfoxide (DMSO). Subsequently, the HER2 exon 20 insertion mutant protein and the compound of the present invention in DMSO solution (final concentration of DMSO: 5%) were added into a buffer for the kinase reaction (13.5 mM Tris (pH 7.5), 2 mM dithiothreitol, and 0.009% Tween 20), and the obtained mixture was then pre-incubated at 25° C. for 30 minutes. Thereafter, the substrate peptide (final concentration: 1 μM), manganese chloride (final concentration: 25 mM), magnesium chloride (final concentration: 20 mM), and ATP (final concentration: 200 μM) were added into the reaction mixture, and the thus obtained mixture was then incubated at 25° C. for 220 minutes, so that the kinase reaction was carried out. To the reaction solution, EDTA was added to a final concentration of 30 mM, so as to terminate the reaction. Finally, using LabChip (registered trademark) EZ Reader II (PerkinElmer), an unphosphorylated substrate peptide (S) and a phosphorylated peptide (P) were separated and detected according to microchannel capillary electrophoresis.

[2] = Evaluation of oral absorbability; format: in vivo, BALB/cA mice; conditions: oral 50 mg/kg/day; for AUC(0-t): mouse, plasma, BALB/cA mice
Method: The compound of the present invention was suspended or dissolved in 0.5% HPMC aqueous solution and 0.1 N hydrochloric acid, and the obtained suspension or solution was orally administered to BALB/cA mice (CLEA Japan, Inc.) at a dose of 50 mg/kg/day. At 0.5, 1, 2, 4 and 6 hours after completion of the oral administration, blood was collected from the facial vein over time, so as to obtain plasma. The concentration of the compound in the obtained plasma was measured by LC-MS/MS, and the oral absorbability of the present compound was evaluated.

[3] = Evaluation of brain penetration properties; format: in vivo, BALB/cA mice; conditions: 0.5 hours after oral 50 mg/kg/day
NCI-N87 cells = assay: Growth inhibitory activity against HER2 expressing cell line NCI-N87; format: cell-based; conditions: Homo sapiens, NCI-N87, 72 h; 3 days, CellTiter-Glo 2.0
Method: NCI-N87 cells as a HER2 overexpressing human stomach cancer cell line (American Type Culture Collection, Cat No. ATCC (registered trademark) CRL-5822) were suspended in an RPMI640 medium (Wako Pure Chemical Industries, Ltd.) supplemented with 10% fetal bovine serum. Subsequently, the cell suspension was seeded in each well of a 96-well flat-bottom microplate, and was then cultured in a 5% carbon dioxide gas-containing culture vessel at 37° C. for 1 day. Thereafter, the compound of the present invention was dissolved in DMSO, and the compound was diluted to 1000 times the final concentration in DMSO. The compound in the DMSO solution was diluted with the medium used in the suspension of the cells, and the obtained solution was then added to each well of the culture plate, so that the final concentration of DMSO became 0.1%. Regarding a control well, DMSO was diluted with the medium used in the suspension of the cells, and the obtained solution was then added to each well of the culture plate, so that the final concentration of DMSO became 0.1%. After addition of a drug solution, the obtained mixture was further cultured in the 5% carbon dioxide gas-containing culture vessel at 37° C. for 3 days. After completion of the culture for 3 days in the presence of the compound, the cells were counted using CellTiter-Glo 2.0 (manufactured by Promega) in accordance with the protocols recommended by Promega. The growth inhibition percentage was calculated according to the following equation. […] Growth inhibitory percentage (%)=(C−T)/(C)×100 T: Emission intensity from the well to which the test compound was added C: Emission intensity from the well to which the test compound was not added

T1 sequence (P04626 23-1255): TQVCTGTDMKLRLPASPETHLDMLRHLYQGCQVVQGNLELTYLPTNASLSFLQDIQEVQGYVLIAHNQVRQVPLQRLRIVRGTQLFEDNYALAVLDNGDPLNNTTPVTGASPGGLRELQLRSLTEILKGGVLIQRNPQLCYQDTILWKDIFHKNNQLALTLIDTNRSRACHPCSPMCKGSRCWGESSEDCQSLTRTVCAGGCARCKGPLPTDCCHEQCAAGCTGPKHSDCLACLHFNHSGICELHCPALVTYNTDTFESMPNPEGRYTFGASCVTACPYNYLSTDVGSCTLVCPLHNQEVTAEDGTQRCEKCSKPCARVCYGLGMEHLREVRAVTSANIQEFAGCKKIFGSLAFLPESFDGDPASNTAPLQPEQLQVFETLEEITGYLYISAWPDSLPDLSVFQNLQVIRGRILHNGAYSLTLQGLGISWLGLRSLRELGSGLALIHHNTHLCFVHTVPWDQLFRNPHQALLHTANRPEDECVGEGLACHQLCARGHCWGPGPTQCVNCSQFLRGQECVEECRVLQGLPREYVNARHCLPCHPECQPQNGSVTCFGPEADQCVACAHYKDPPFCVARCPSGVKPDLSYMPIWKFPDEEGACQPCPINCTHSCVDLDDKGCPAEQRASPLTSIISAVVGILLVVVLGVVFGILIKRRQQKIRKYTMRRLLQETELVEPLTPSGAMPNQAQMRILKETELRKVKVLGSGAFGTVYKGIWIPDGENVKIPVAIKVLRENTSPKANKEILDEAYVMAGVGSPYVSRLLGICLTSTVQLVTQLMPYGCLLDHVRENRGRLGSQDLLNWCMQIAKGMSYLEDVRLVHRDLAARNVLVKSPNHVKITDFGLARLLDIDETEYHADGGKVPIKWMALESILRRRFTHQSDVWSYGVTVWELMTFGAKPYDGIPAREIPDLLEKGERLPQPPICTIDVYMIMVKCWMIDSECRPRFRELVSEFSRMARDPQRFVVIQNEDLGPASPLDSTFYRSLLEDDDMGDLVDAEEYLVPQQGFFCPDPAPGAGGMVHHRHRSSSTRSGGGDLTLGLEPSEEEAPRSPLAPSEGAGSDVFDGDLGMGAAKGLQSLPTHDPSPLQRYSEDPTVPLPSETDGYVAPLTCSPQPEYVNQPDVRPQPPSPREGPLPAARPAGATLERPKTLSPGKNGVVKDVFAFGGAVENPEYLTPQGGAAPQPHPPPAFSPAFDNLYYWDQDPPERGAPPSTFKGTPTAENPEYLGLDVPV

IC50 (HER2) | IC50 (SK-BR-3 cells) | GI50 (Ba/F3-HER2insYVMA cells) | IC50 [1] | AUC(0-t) [2] | oral absorbability attenuated versus the compound of the present invention ([2]; mice) | brain concentration attenuated versus the compound of the present invention ([3]; mice) | Kp at 0.5 h ([3]; mouse, brain, BALB/cA mice, read-out: Kp value (Compound concentration in brain/plasma)) | concentration at 0.5 h ([3]; mouse, plasma, BALB/cA mice, read-out: Compound concentration in plasma) | Structure (SMILES) | IC50 (NCI-N87 cells)
> 10 µM | > 10 µM | > 10 µM | > 10 µM | – | – | – | – | – | CC#Cc1c(C(=O)Nc2ccc(COC)cc2)c2c(N)ncnc2n1C1(C)CC1 [Comp. Ex. 1, 4-Amino-N-(4-(methoxymethyl)phenyl)-7-(1-methylcyclopropyl)-6-(prop-1-yn-1-yl)-7H-pyrrolo[2,3-d]pyrimidine-5-carboxamide, reference compound] | –
0.019 µM | 0.025 µM | 1.9 µM | 0.0044 µM | 1.5 µM·h | more than 4 times | more than 80 times | 0.005 | 1600 nM | C=CC(=O)N1C[C@H](n2nc(C(=O)Nc3ccc(CC(=O)N(C)C)c(C)c3C)c3c(N)ncnc32)C[C@@H]1C [Comp. Ex. 2, 1-((3R,5S)-1-acryloyl-5-methylpyrrolidin-3-yl)-4-amino-N-(4-(2-(dimethylamino)-2-oxoethyl)-2,3-dimethylphenyl)-1H-pyrazolo[3,4-d]pyrimidine-3-carboxamide, reference compound] | –
0.63 µM | 4.3 µM | 3.4 µM | 0.38 µM | – | – | – | – | – | C=CC(=O)N1C[C@H](n2c(C#CC)c(C(=O)NCC3CCCCC3)c3c(N)ncnc32)C[C@@H]1C [Comp. Ex. 3, 7-((3R,5S)-1-acryloyl-5-methylpyrrolidin-3-yl)-4-amino-N-(cyclohexylmethyl)-6-(prop-1-yn-1-yl)-7H-pyrrolo[2,3-d]pyrimidine-5-carboxamide] | –
0.054 µM | 0.34 µM | 0.9 µM | 0.011 µM | – | – | – | – | – | C=CC(=O)N1C[C@H](n2c(C#CC)c(C(=O)NCc3ccccc3C)c3c(N)ncnc32)C[C@@H]1C [Comp. Ex. 4, 7-((3R,5S)-1-acryloyl-5-methylpyrrolidin-3-yl)-4-amino-N-(2-methylbenzyl)-6-(prop-1-yn-1-yl)-7H-pyrrolo[2,3-d]pyrimidine-5-carboxamide] | –
0.13 µM | 0.4 µM | 1.3 µM | 0.014 µM | – | – | – | – | – | C=CC(=O)N1C[C@H](n2c(C#CC)c(C(=O)N(C)[C@H](C)c3ccccc3)c3c(N)ncnc32)C[C@@H]1C [Comp. Ex. 5, 7-((3R,5S)-1-acryloyl-5-methylpyrrolidin-3-yl)-4-amino-N-methyl-N—((R)-1-phenylethyl)-6-(prop-1-yn-1-yl)-7H-pyrrolo[2,3-d]pyrimidine-5-carboxamide] | –
0.39 µM | 3 µM | 4.1 µM | > 10 µM | – | – | – | – | – | CC#Cc1c(C(=O)N[C@H](C)c2ccccc2)c2c(N)ncnc2n1[C@@H]1C[C@H](C)N(C(=O)/C=C/C)C1 [Comp. Ex. 6, 4-Amino-7-((3R,5S)-1-((E)-but-2-enoyl)-5-methylpyrrolidin-3-yl)-N—((R)-1-phenylethyl)-6-(prop-1-yn-1-yl)-7H-pyrrolo[2,3-d]pyrimidine-5-carboxamide] | –
0.0049 µM | 0.012 µM | 0.04 µM | 0.00039 µM | 15 µM·h | – | – | – | – | C=CC(=O)N1C[C@H](n2c(C#CC)c(C(=O)N[C@H](C)c3ccc(F)cc3F)c3c(N)ncnc32)C[C@@H]1C [Example 7, 7-((3R,5S)-1-acryloyl-5-methylpyrrolidin-3-yl)-4-amino-N—((R)-1-(2,4-difluorophenyl)ethyl)-6-(prop-1-yn-1-yl)-7H-pyrrolo[2,3-d]pyrimidine-5-carboxamide] | 0.0111 µM
0.0046 µM | 0.007 µM | 0.04 µM | 0.00042 µM | 34 µM·h | – | – | – | – | C=CC(=O)N1C[C@H](n2c(C#CC(C)C)c(C(=O)NC(C)(C)c3ccccc3F)c3c(N)ncnc32)C[C@@H]1C [Example 15, 7-((3R,5S)-1-acryloyl-5-methylpyrrolidin-3-yl)-4-amino-N-(2-(2-fluorophenyl)propan-2-yl)-6-(3-methylbut-1-yn-1-yl)-7H-pyrrolo[2,3-d]pyrimidine-5-carboxamide] | 0.0116 µM
